Measured values reported in patent US20130315982A1, “LIPOSOMAL DRUG COMPOSITION CONTAINING A POLYMERIC GUANIDINE DERIVATIVE” (MINDINVEST HOLDINGS LTD., priority 2010, published 2013).

System: tumor cells
Experiment: Resistance study with 30 passages
Assay type: cell-based
Description: It has been shown that the problem can be solved by encapsulation of the polymeric guanidine derivate in PEGylated liposomes, which ensures that the drug substance reaches its target in higher concentrations, e.g. the malignant tumor cells. […] The commonly known cytostatics induce such cellular resistance mechanisms requiring higher, toxic doses, which cause severe side effects.

## poly-[2-(2-ethoxyethoxyethyl)guanidinium hydrochloride] [API]
  reduction of activity (induction of resistance): no reduction of activity
